pIC50: −log10 of the molar value. No end group written: not given here.
Tests used:
human erythrocytes = experiment: Hemolytic assay; details: 1 h at 37° C., 100% of hemolysis was not observed
Description: (§2) Fresh human venous blood was collected from volunteers in Vacutainer collection tubes containing sodium heparin as an anticoagulant (BD Biosciences, Franklin Lakes, N.J.). The blood was centrifuged at 1500 rpm and the serum was removed and the blood cells were replaced and washed 3 times with the same volume of sterile NaCl 0.85% solution. Concentrated red blood cells were diluted tenfold in NaCl 0.85% solution and then exposed at two-fold dilutions of peptides for 1 h at 37° C., at identical concentrations used for antimicrobial assays, in the ratio of 1:1 (v/v), achieving a final volume of 100 uL. The assay was carried out in 96-well polypropylene microtiter plates. The positive control wells contained 1% of Triton X-100, representing 100% cell lysis, and negative control wells contained sterile saline. Hemoglobin release was monitored chromogenically at 546 nm using a microplate reader.

E. coli ATCC 25922 = experiment: SYTOX Green uptake assay (cytoplasmic membrane permeabilization); format: cell-based, Escherichia coli; details: 5 μM, positive control
Description: The guavanin 2-induced permeabilization of the bacterial cytoplasmic plasma membrane of E. coli ATCC 25922 was determined by fluorometric measurement of SYTOX green (SG) influx (Thevissen et al., Appl. Environ. Microbiol. 1999 December; 65(12): 5451-8). SG is a high-affinity nucleic acid dye that is impermeant to live cells. When the cell membrane is damaged, this dye penetrates into the cell and binds to intracellular DNA, leading to an increase in fluorescence. For SG uptake assay, exponentially growing bacteria (6×10^5 CFU·mL^−1) were re-suspended in PBS after centrifugation (1000×g, 10 min, 4° C.) and washing steps. 792 μL of the bacterial suspension was pre-incubated with 8 μL of 100 μM SG during 30 min at 37° C. in the dark. […] Three independent experiments were performed and results correspond to a representative experiment with negative (PBS) and positive (melittin) controls.

E. coli (ATCC 25922) = experiment: Membrane polarization assay with DiSC3(5); format: cell-based, Escherichia coli; details: melittin positive control
Description: When the cytoplasmic membrane is intact, the fluorescent probe DiSC3(5) accumulates into the cytoplasmic membrane and then aggregates, causing self-quenching of the fluorescence. In the presence of a membrane-depolarizing agent, DiSC3(5) is released into the medium, leading to an increase in fluorescence that can be monitored over time. The experiment was performed as previously described (André et al., ACS Chem. Biol. 2015 Jul. 30; 10(10): 2257-66). Briefly, exponentially growing bacteria were centrifuged (1000×g, 10 min, 4° C.), washed with PBS and re-suspended in the same buffer to an A630 of 0.1; then 700 µL of bacteria were pre-incubated with 1 μM DiSC3(5) in the dark during 10 min at 37° C., and then 100 μL of 1 mM KCl were added in order to equilibrate the cytoplasmic and external K+ concentrations. […] Three independent experiments were performed and results correspond to a representative experiment with negative (PBS) and positive (melittin) controls.

[1] = system: bioluminescent engineered P. aeruginosa strain H1001; experiment: Antimicrobial activity by bioluminescence assay (SPOT-synthesized peptides); format: cell-based, Pseudomonas aeruginosa; details: SPOT-synthesized unpurified crude peptide (~70% purity)
Description: A peptide array composed of 20 peptides (15 guavanins, 4 Pg-AMP1 fragments and magainin 2) was designed and synthesized by Kinexus Bioinformatics Corporation (Vancouver, BC). Peptides were produced in a standard mass of 80 μg by using cellulose support in SPOT technology, as previously described by Winkler et al. Methods Mol. Biol. 2009; 570: 157-74. The crude synthetic peptides were obtained from cellulose membrane discs that had already been treated with ammonia gas to release the peptides from the membrane. Peptides were then dissolved overnight in distilled water and subsequently evaluated for their biological activities, as described below.
The antimicrobial activity of the synthesized peptides was evaluated against an engineered luminescent Pseudomonas aeruginosa H1001 strain in 96-well microplates, as described previously with a few modifications (Hilpert & Hancock, Nat. Protoc. 2007; 2(7): 1652-60). […] Luminescence was measured on a Tecan […]luor Plus Microplate Reader (Tecan US, Morrisville, N.C.). The antimicrobial activity was evaluated by the ability of the peptides to reduce the luminescence of P. aeruginosa-lux strain compared to untreated cells. […]

[2] = system: Acinetobacter baumannii ATCC 19606; experiment: MIC, two-fold serial dilution in microtitre plates; format: cell-based
Description: (§1) After 18 h incubation at 37° C.

[3] = system: Escherichia coli ATCC 25922; experiment: MIC, two-fold serial dilution in microtitre plates; format: cell-based; details: average of three independent experiments
Description: as §1

in vitro = details: human
Description: as §2

HEK-293 cells = experiment: Cytotoxicity, MTT-based microassay; format: cell-based, human; details: 72 h, read-out: Active Concentration (inhibitory concentration 50, IC50)
Description: HEK-293 cells were cultured in DMEM medium, and incubated at 37° C. in a humidified atmosphere of 5% CO2. Cell viability was quantified after peptide incubation using a methylthiazolyldiphenyl-tetrazolium bromide (MTT)-based microassay (Riss et al., (eds. Sittampalam, G. et al.) (Bethesda (Md.), 2004)). […] Then, 10 μl of MTT (5 mg·mL^−1 in PBS) was added to each well and the cells were further incubated for 4 h in the dark. The formazan crystals formed by mitochondrial reductases in intact cells are insoluble in aqueous solutions and precipitate. Formazan crystals were dissolved using a solubilization solution (40% dimethylformamide in 2% glacial acetic acid, 16% sodium dodecyl sulfate, pH 4.7) followed by 1 h incubation at 37° C. under shaking (150 rpm). Finally, the absorbance of the resuspended formazan was measured at 570 nm. Data were analyzed with GraphPad Prism® 5.0 software to determine the inhibitory concentration 50 (IC50), which corresponds to the peptide concentration producing 50% cell death. Results were expressed as the mean of three independent experiments performed in triplicate.

[4] = system: Listeria ivanovii Li4pVS2
Description: Staphylococcus aureus ATCC 25923, Enterococcus faecalis ATCC 29212, Escherichia coli ATCC 25922, Pseudomonas aeruginosa ATCC 27853, Acinetobacter baumannii ATCC 19606 and Klebsiella pneumoniae ATCC 13883 were cultured in Lysogeny Broth (LB). The bacteria Streptococcus pyogenes ATCC 19615 and Listeria ivanovii Li 4pVS2 were cultured in Brain Heart Infusion (BHI) broth, whereas Candida species (C. albicans ATCC 90028 and C. parapsilosis ATCC 22019) were cultured in Yeast Peptone Dextrose (YPD) medium. Logarithmic phase culture of bacteria and yeasts were centrifuged and suspended in MH (Mueller Hinton) broth to an A630 of 0.01 (˜10^6 CFU·mL^−1), except for S. pyogenes, L. ivanovii and E. faecalis that were suspended in their respective growth medium. […] After 18 h incubation at 37° C. (30° C. for yeasts), the antimicrobial susceptibility was monitored by measuring the change in A630 using a microplate reader (UVM 340, Asys Hitech). […] Each experiment was performed in triplicate with positive (0.7% formaldehyde) and negative (without peptide) inhibition controls.

Compound | Hemolysis (human erythrocytes) [µg/mL] | further results
N=C(N)NCCC[C@H](NC(=O)CNC(=O)[C@H](CO)NC(=O)CNC(=O)[C@H](Cc1ccc(O)cc1)NC(=O)CNC(=O)CNC(=O)CNC(=O)[C@H](Cc1ccc(O)cc1)NC(=O)[C@H](CCCNC(=N)N)NC(=O)CNC(=O)CNC(=O)CNC(=O)[C@H](Cc1ccc(O)cc1)NC(=O)CNC(=O)CNC(=O)[C@H](Cc1ccc(O)cc1)NC(=O)CNC(=O)[C@@H](N)Cc1ccc(O)cc1)C(=O)NCC(N)=O [Fragment 3] | >200 | 
CC[C@H](C)[C@H](NC(=O)CN)C(=O)NCC(=O)N[C@@H](C)C(=O)N[C@H](C(=O)N[C@@H](CC(C)C)C(=O)N[C@@H](CCCCN)C(=O)N[C@H](C(=O)N[C@@H](CC(C)C)C(=O)N[C@H](C(=O)N[C@H](C(=O)NCC(=O)N[C@@H](CC(C)C)C(=O)N1CCC[C@H]1C(=O)N[C@@H](C)C(=O)N[C@@H](CC(C)C)C(=O)N[C@H](C(=O)N[C@@H](CO)C(=O)N[C@@H](Cc1c[nH]c2ccccc12)C(=O)N[C@H](C(=O)N[C@@H](CCCCN)C(=O)N[C@@H](CCCNC(=N)N)C(=O)N[C@@H](CCCCN)C(=O)N[C@@H](CCCNC(=N)N)C(=O)N[C@@H](CCC(N)=O)C(=O)N[C@@H](CCC(N)=O)C(N)=O)[C@@H](C)CC)[C@@H](C)CC)[C@@H](C)O)[C@@H](C)O)C(C)C)C(C)C [melittin] |  | SYTOX Green (SG) fluorescence signal (E. coli ATCC 25922): rapid and maximal SG fluorescence signal; DiSC3(5) fluorescence (membrane potential) (E. coli (ATCC 25922)): rapid increase in the fluorescence signal
GQPVGQGVERSHDDNRNQPR-NH2 [Fragment 4] | >200 | 
H-GIGKFLHSAKKFGKAFVGEIMNS-OH [Magainin 2, reference compound] | >200 | MIC [1]: 100 mg/L
RAYMEALRQAERLGNRTARR-NH2 [Guavanin 9] | >200 | 
RKLMELYEQAIRYGKRSYRR-NH2 [Guavanin 12] | >200 | 
RKLMEMYEEAFRYFNRISRR-NH2 [Guavanin 5] | >200 | 
RKLVECYERAERDANRSGRR-NH2 [Guavanin 15] | >200 | 
RKYMRQYEEAIRDGNRSIRR-NH2 [Guavanin 3] | >200 | 
RQIYESIEQALRRGYRSYRR-NH2 [Guavanin 7] | >200 | 
RQLMELIEQAERYGNRFYRR-NH2 [Guavanin 11] | >200 | 
RQYMRQIEQALRYGYRISRR-NH2 [Guavanin 2] | >200 | Active Concentration (MIC) [2]: 6.25 µM; Active Concentration (MIC) [3]: 6.25 µM; CC50 at 1 h (in vitro): > 200 µM; pIC50 (HEK-293 cells): < 3.70; Active Concentration (MIC) [4]: 50 µM
RQYMRYLEQAERYVNRNLRR-NH2 [Guavanin 4] | >200 | 
RRGMKQYERISRDANRSYRR-NH2 [Guavanin 1] | >200 | 
RRYMECYEQAERYFRRFGRR-NH2 [Guavanin 13] | >200 | 
RSFMKCYEQASRYGNRILRR-NH2 [Guavanin 14] | >200 | 
RSIMELYKQASRSFNRGIRR-NH2 [Guavanin 6] | >200 | 
RSYYEAYERALRKGQRGIRR-NH2 [Guavanin 8] | >200 | 
RYGYGGYGGGRYGGGYGSGR-NH2 [Fragment 2] | 100 | Hemolysis (human erythrocytes; listed as 2nd fragment): hemolytic
RYLMEYAEQAKRDAKRAYRR-NH2 [Guavanin 10] | >200 | 
SSRMECYEQAERYGYGGYGG-NH2 [Fragment 1] | >200 | 

— US20210183469A9, “COMPUTATIONAL PLATFORM FOR IN SILICO COMBINATORIAL SEQUENCE SPACE EXPLORATION AND ARTIFICIAL EVOLUTION OF PEPTIDES” (priority 2018, published 2021)
